Each structure is given as a SMILES string.

The test system of assay [1] is HSV-1. The assay is described as follows: HSV-1 viral protein synthesis in infected H-ras transformed NIH-3T3 cells, Western blot with rabbit anti-HSV-1 antibody. Particulars: for production of viral proteins / HSV-1 infection / infectivity (summary statement): H-ras transformed NIH-3T3 cells; for production of viral proteins: 22 hours post-infection. Format: cell-based, HSV-1 (strain F). The procedure: (§1) Western blot (Immunoblot) analysisinfected cells were lysed with the single detergent lysis buffer [50 mM Tris (pH 8.0), 150 mM NaCI, 0.02% sodium azide, 100 μg/ml phenylmethy-sulfonyl fluoride, 1 μg/ml aprotinin, and 1% Triton X-100], normalized for the amount of total protein and subjected to SDS-PAGE, followed by electroblotting onto nitrocellulose paper. The membrane was then washed and incubated with the primary antibody [rabbit antibody against all HSV-1 antigens (Dako, CA.; 1:20,000); mouse anti-ICP27 or anti-gC antibody (Rumbaugh-Goodwin Institute, FL; 1:1,000); rabbit anti-ICP8 antibody (from Dr. Paul Olivo, Washington University, St. Louis; 1:1,000); mouse anti-PKR and mouse anti-eIF-2 α antibody (Santa Cruz; 1:1,000); rabbit anti-phospho-PKR and rabbit antiphospho-eIF-2 α antibody (Biosource, CA; 1:1,000) followed by HRP-conjugated secondary antibody (1:2,000). After extensive washing, the blot was exposed to Lumigel detection solution (New England Biolabs) and subjected to autoradiography.
H-ras transformed NIH-3T3 cells were exposed to the farnesyl transferase inhibitors FTI-1 at a final concentration 50 μM or 100 μM in the culture medium. Control cells were not exposed to inhibitor. At 22 hours post-infection the cells were harvested and Western blot analysis was performed on these samples using rabbit anti-HSV-1 antibody, as described above.
To determine whether other inhibitors of farnesyl transferase would have the same effect on viral protein synthesis, three additional inhibitors were tested. H-ras transformed NIH-3T3 cells were exposed to the farnesyl transferase inhibitors FPTI-1, FPTI-2 and FTI-4 at a final concentration 150 μM, 150 μM or or 50 μM in the culture medium. Control cells were not exposed to inhibitor. At 22 hours postinfection the cells were harvested and Western blot analysis was performed on these samples using rabbit anti-HSV-1 antibody, as described above.
HSV-1 infected H-ras transformed NIH-3T3 cells were exposed to 40 μM PD98059 in the culture medium. Control cells (HSV-1 infected) were not exposed to PD98059. At 22 hours post-infection, the cells were harvested and Western blot analysis was performed on these samples using rabbit anti-HSV antibody, as described above.
P-13 Kinase Pathway is Not Involved in HSV-1 InfectionH-ras cells that were infected with HSV-1 were exposed to Wortmannin at a final concentration of 200 nM for the entire duration of the infection. Cells were harvested at 22 hr. post infection, lysed and subjected to SDS PAGE followed by immunoblotting with a rabbit anti-HSV-1 antibody.
For orientation: Immunoblotting shows a protein as a band on a membrane.

For assay [2], the system named is ERK1/2 (Erk42/44) phosphorylation. The assay is described as follows: ERK1/2 phosphorylation in H-ras cells, Western blot. Format: cell-based, murine. From the text:
(§2) Briefly, subconfluent monolayer cultures were lysed with the recommended SDS-containing sample buffer, the lysate was subjected to SDS-PAGE and electroblotted onto nitrocellulose paper. Blots were probed with anti-ERK1/2 or anti-phospho-ERK1/2 antibodies (for samples treated with FTI-1 or PD98059), anti-ATF-2 or anti-phospho-ATF-2 (for samples treated with SB203580), and anti-Akt and anti-phospho-Akt (for samples treated with Wortmannin). The antibody kits were purchased from New England Biolabs (MA). FTI-1, PD98059, SB203580 and Wortmannin were purchased from Calbiochem (CA).

In assay [3] the test system is HSV-1. The assay is described as follows: Immunofluorescence of HSV-1-infected A549 cells. Format: cell-based. To be noted: 100 μM FTI-1.
In assay [4] the test system is HSV-1. The assay is described as follows: HSV-1 virus yield from H-ras transformed cells, plaque titration on Vero cells. To be noted: MOI 0.5 PFU/cell, harvested 22 hours post infection, inhibitor present for entire infection. Format: cell-based.
Another assay deals with PKR phosphorylation. In words: PKR phosphorylation in HSV-1 infected H-ras cells, immunoblot with anti-PKR / anti-phospho-PKR. In kind it is cell-based, murine. As to the method:
as §1
H-ras cells were exposed to FTI-1 (100 μM) or PD98059(40 μM) and the phosphorylation state of PKR was assessed using anti-PKR (total PKR) or anti-phospho-PKR (P-PKR) antibodies . […] The difference in phosphorylation of PKR in infected NIH-3T3 cells and in infected MEF cells is shown in the right side of FIG. 10, Panel “B”.

In assay [5] the test system is HSV-1. The assay is described as follows: HSV-1 viral protein synthesis in PKR+/+ and PKR-/- mouse embryo fibroblasts, Western blot. To be noted: MOI 0.5 PFU/cell, 20 hr post-infection. Format: cell-based. As to the method:
The PKR^+/^+ and PKR^−/^− mouse embryo fibroblasts were obtained from Dr. B. R. G. Williams (the Cleveland Clinic Foundation) and were grown in α-MEM containing 10% FBS and antibiotics, as described.
as §1, with “After extensive washing, the blot was exposed to Lumigel detection solution (New England Biolabs) and subjected to autoradiography.” left out
The level of infection by R3616 in PKR^−/^− fibroblasts is equivalent to that seen in cells transformed by Ras, or elements of the Ras pathway. […] Cells were harvested at 20 hr post-infection and analyzed for viral proteins as above. […]

For the next assay, the system named is ATF-2 phosphorylation. The assay is described as follows: ATF-2 phosphorylation in H-ras cells, Western blot. Format: cell-based, murine. Particulars: SB203580.
Text: as §2

Consider `CSCC[C@H](NC(=O)[C@H](Cc1ccccc1)NC[C@@H](NC[C@@H](N)CS)C(C)C)C(=O)O` [FTI-1], for which the “production of viral proteins” value in the assay with HSV-1 [1] (FTI-1 50 μM or 100 μM in culture medium, vs control without inhibitor) is on record as “drastically reduced”. The “HSV-1 infection / infectivity (summary statement)” value (“HSV-1 infection / infectivity” below) in the assay with HSV-1 [1] is “effectively block HSV-1 infection”. Moreover, in assay [2] (FTI-1 50 μM or 100 μM), the “phosphorylation of ERK1/2 (ERK42/44)” value was “reduced phosphorylation of ERK1/2”. The “level of viral proteins detected by immunofluorescence” value in the assay with HSV-1 [3] is recorded as “dramatically reduces the level of viral proteins detected”. Further, the “virus yield (plaque titration on Vero cells)” value (“virus yield” for short) in the assay on HSV-1 [4] is on record as “dramatically decreased virus yield”. The PKR phosphorylation entry with PKR phosphorylation (FTI-1 100 μM) is listed as “PKR phosphorylation is restored”. The “HSV-1 infection (viral protein synthesis)” value in the assay on HSV-1 [5] (PKR+/+ cells) is “inhibited HSV-1 infection”; with HSV-1 [5] (PKR-/- cells), “no effect”.
Regarding `COc1cccc(-c2cc(=O)c3ccccc3o2)c1N` [PD98059], in the assay with HSV-1 [1] (40 μM PD98059, vs control), the “production of viral proteins” value is on record as “reduced”. Further, the “HSV-1 infection / infectivity” value with HSV-1 [1] is “partially blocked HSV-1 infection”. In addition, in assay [2] (PD98059 40 μM), the “phosphorylation of ERK1/2 (Erk42/44)” value was “lack of phosphorylation of ERK1/2”. The “virus yield” value in the assay with HSV-1 [4] is reported as “dramatically decreased virus yield”. In addition, the PKR phosphorylation entry in the assay with PKR phosphorylation (PD98059 40 μM) was “PKR phosphorylation is restored”.
Turning to `C[S+]([O-])c1ccc(-c2nc(-c3ccncc3)c(-c3ccc(F)cc3)[nH]2)cc1` (centres unmarked) [SB203580], the “HSV-1 infection / infectivity” value in the assay on HSV-1 [1] was “neither SB203580 [11] a specific inhibitor of p38 kinase, or Wortmannin [12] a specific inhibitor of P13-kinase, had any measurable effect”. Further, the “effect on HSV-1 infection (viral proteins, immunoblot)” value in the assay with HSV-1 [1] (SB203580 at effective doses, H-ras transformed cells) is on record as “no effect on HSV-1 infection”. For the same molecule, in the assay on ATF-2 phosphorylation, the “phosphorylation of ATF-2” value is “lack of phosphorylation of ATF-2”. Besides, in the assay on HSV-1 [4], the “virus yield” value is on record as “does not effect virus yield”.

Source of the values: patent US20010049113A1, “Diagnosis and treatment of herpes infections” (priority 2000, published 2001).
